In PubChem BioAssay (NCI):
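Cultured in 96-well plates, cells were exposed to test compound for 48 hours across five concentrations. At the TGI there is no net growth.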

Assays:
Experiment in all cases: NCI-60 cell line screen, 48 h
HCT-116 colon = system: HCT-116 colon
NCI-H23 lung = system: NCI-H23 lung
HOP-18 NSCLC = system: HOP-18 NSCLC
SK-MEL-28 melanoma = system: SK-MEL-28 melanoma
KM20L2 colon = system: KM20L2 colon
HT29 colon = system: HT29 colon
SF-539 CNS = system: SF-539 CNS
CAKI-1 renal = system: CAKI-1 renal
OVCAR-8 ovarian = system: OVCAR-8 ovarian
HL-60(TB) leukemia = system: HL-60(TB) leukemia
SN12C renal = system: SN12C renal
SF-268 CNS = system: SF-268 CNS
COLO 205 colon = system: COLO 205 colon
SK-MEL-2 melanoma = system: SK-MEL-2 melanoma
RPMI-8226 leukemia = system: RPMI-8226 leukemia
XF 498 CNS = system: XF 498 CNS
KM12 colon = system: KM12 colon
ACHN renal = system: ACHN renal
SNB-75 CNS = system: SNB-75 CNS
786-0 renal = system: 786-0 renal
HOP-62 NSCLC = system: HOP-62 NSCLC
K-562 leukemia = system: K-562 leukemia
EKVX NSCLC = system: EKVX NSCLC
MOLT-4 leukemia = system: MOLT-4 leukemia
UACC-62 melanoma = system: UACC-62 melanoma
HOP-92 NSCLC = system: HOP-92 NSCLC
HCC-2998 colon = system: HCC-2998 colon
DLD-1 colon = system: DLD-1 colon
NCI-H460 lung = system: NCI-H460 lung
NCI-H522 lung = system: NCI-H522 lung
RXF 393 renal = system: RXF 393 renal
TK-10 renal = system: TK-10 renal
OVCAR-3 ovarian = system: OVCAR-3 ovarian
UACC-257 melanoma = system: UACC-257 melanoma
CCRF-CEM leukemia = system: CCRF-CEM leukemia
SF-295 CNS = system: SF-295 CNS
LXFL 529 NSCLC = system: LXFL 529 NSCLC
M14 melanoma = system: M14 melanoma
UO-31 renal = system: UO-31 renal
NCI-H226 lung = system: NCI-H226 lung
U251 CNS = system: U251 CNS
HCT-15 colon = system: HCT-15 colon
DMS 273 small cell lung = system: DMS 273 small cell lung
OVCAR-4 ovarian = system: OVCAR-4 ovarian
A549 NSCLC = system: A549 NSCLC
SW-620 colon = system: SW-620 colon
SNB-19 CNS = system: SNB-19 CNS
DMS 114 small cell lung = system: DMS 114 small cell lung
MALME-3M melanoma = system: MALME-3M melanoma
SR leukemia = system: SR leukemia
A498 renal = system: A498 renal
M19-MEL melanoma = system: M19-MEL melanoma
SK-OV-3 ovarian = system: SK-OV-3 ovarian
OVCAR-5 ovarian = system: OVCAR-5 ovarian
SK-MEL-5 melanoma = system: SK-MEL-5 melanoma
SNB-78 CNS = system: SNB-78 CNS
IGROV1 ovarian = system: IGROV1 ovarian
LOX IMVI melanoma = system: LOX IMVI melanoma

## O=C1c2ccccc2C(=O)c2[nH]c(Cc3ccccc3F)nc21
HCT-116 colon
  TGI: > 100 µM
NCI-H23 lung
  TGI: > 100 µM
HOP-18 NSCLC
  TGI: > 100 µM
SK-MEL-28 melanoma
  TGI: > 100 µM
KM20L2 colon
  TGI: > 100 µM
HT29 colon
  TGI: > 100 µM
SF-539 CNS
  TGI: 91.1 µM
CAKI-1 renal
  TGI: > 100 µM
OVCAR-8 ovarian
  TGI: > 100 µM
HL-60(TB) leukemia
  TGI: > 100 µM
SN12C renal
  TGI: > 100 µM
SF-268 CNS
  TGI: > 100 µM
COLO 205 colon
  TGI: > 100 µM
SK-MEL-2 melanoma
  TGI: > 100 µM
RPMI-8226 leukemia
  TGI: > 100 µM
XF 498 CNS
  TGI: > 100 µM
KM12 colon
  TGI: > 100 µM
ACHN renal
  TGI: > 100 µM
SNB-75 CNS
  TGI: > 100 µM
786-0 renal
  TGI: > 100 µM
HOP-62 NSCLC
  TGI: > 100 µM
K-562 leukemia
  TGI: > 100 µM
EKVX NSCLC
  TGI: > 100 µM
MOLT-4 leukemia
  TGI: > 100 µM
UACC-62 melanoma
  TGI: > 100 µM
HOP-92 NSCLC
  TGI: > 100 µM
HCC-2998 colon
  TGI: > 100 µM
DLD-1 colon
  TGI: 82.5 µM
NCI-H460 lung
  TGI: > 100 µM
NCI-H522 lung
  TGI: 70.9 µM
RXF 393 renal
  TGI: 75.5 µM
TK-10 renal
  TGI: 88.3 µM
OVCAR-3 ovarian
  TGI: 39 µM
UACC-257 melanoma
  TGI: > 100 µM
CCRF-CEM leukemia
  TGI: > 100 µM
SF-295 CNS
  TGI: > 100 µM
LXFL 529 NSCLC
  TGI: > 100 µM
M14 melanoma
  TGI: > 100 µM
UO-31 renal
  TGI: > 100 µM
NCI-H226 lung
  TGI: > 100 µM
U251 CNS
  TGI: > 100 µM
HCT-15 colon
  TGI: > 100 µM
DMS 273 small cell lung
  TGI: > 100 µM
OVCAR-4 ovarian
  TGI: > 100 µM
A549 NSCLC
  TGI: > 100 µM
SW-620 colon
  TGI: > 100 µM
SNB-19 CNS
  TGI: > 100 µM
DMS 114 small cell lung
  TGI: > 100 µM
MALME-3M melanoma
  TGI: > 100 µM
SR leukemia
  TGI: > 100 µM

## CCN(C(C)=N)c1ccccc1
HCT-116 colon
  TGI: > 100 µM
NCI-H23 lung
  TGI: > 100 µM
HOP-18 NSCLC
  TGI: > 100 µM
SK-MEL-28 melanoma
  TGI: > 100 µM
KM20L2 colon
  TGI: > 100 µM
SF-539 CNS
  TGI: > 100 µM
CAKI-1 renal
  TGI: > 100 µM
A498 renal
  TGI: > 100 µM
OVCAR-8 ovarian
  TGI: > 100 µM
M19-MEL melanoma
  TGI: > 100 µM
HL-60(TB) leukemia
  TGI: > 100 µM
SN12C renal
  TGI: > 100 µM
SF-268 CNS
  TGI: > 100 µM
COLO 205 colon
  TGI: > 100 µM
SK-MEL-2 melanoma
  TGI: > 100 µM
RPMI-8226 leukemia
  TGI: > 100 µM
XF 498 CNS
  TGI: > 100 µM
KM12 colon
  TGI: > 100 µM
ACHN renal
  TGI: > 100 µM
SNB-75 CNS
  TGI: > 100 µM
786-0 renal
  TGI: > 100 µM
HOP-62 NSCLC
  TGI: > 100 µM
K-562 leukemia
  TGI: > 100 µM
EKVX NSCLC
  TGI: > 100 µM
MOLT-4 leukemia
  TGI: > 100 µM
UACC-62 melanoma
  TGI: > 100 µM
HOP-92 NSCLC
  TGI: > 100 µM
HCC-2998 colon
  TGI: > 100 µM
DLD-1 colon
  TGI: > 100 µM
NCI-H460 lung
  TGI: > 100 µM
NCI-H522 lung
  TGI: > 100 µM
RXF 393 renal
  TGI: > 100 µM
SK-OV-3 ovarian
  TGI: > 100 µM
TK-10 renal
  TGI: > 100 µM
OVCAR-3 ovarian
  TGI: > 100 µM
OVCAR-5 ovarian
  TGI: > 100 µM
UACC-257 melanoma
  TGI: 44.3 µM
CCRF-CEM leukemia
  TGI: > 100 µM
SF-295 CNS
  TGI: > 100 µM
LXFL 529 NSCLC
  TGI: > 100 µM
M14 melanoma
  TGI: > 100 µM
SK-MEL-5 melanoma
  TGI: > 100 µM
SNB-78 CNS
  TGI: > 100 µM
UO-31 renal
  TGI: > 100 µM
NCI-H226 lung
  TGI: > 100 µM
U251 CNS
  TGI: > 100 µM
HCT-15 colon
  TGI: > 100 µM
OVCAR-4 ovarian
  TGI: > 100 µM
IGROV1 ovarian
  TGI: > 100 µM
A549 NSCLC
  TGI: > 100 µM
LOX IMVI melanoma
  TGI: > 100 µM
SW-620 colon
  TGI: > 100 µM
SNB-19 CNS
  TGI: > 100 µM
DMS 114 small cell lung
  TGI: > 100 µM
MALME-3M melanoma
  TGI: > 100 µM
